Source: ChEMBL document CHEMBL1681692, “Identification of new GATA4-small molecule inhibitors by structure-based virtual screening” (Bioorg Med Chem, 2011)
Active and inactive are the calls of the source. The calls are words filed in the database; no cut-off is given here.

Experiments:
HeLa [1] = test: Cytotoxicity in human HeLa cells assessed as cell death upto 150 uM; format: cell-based
[2] = target: T1, Nuclear factor of activated T-cells, cytoplasmic 1 (Homo sapiens) (UniProt O95644); test: Effect on NFATc1 in HEK293 nuclear extract at 50 uM after 15 mins by EMSA assay
T1 sequence (whole entry): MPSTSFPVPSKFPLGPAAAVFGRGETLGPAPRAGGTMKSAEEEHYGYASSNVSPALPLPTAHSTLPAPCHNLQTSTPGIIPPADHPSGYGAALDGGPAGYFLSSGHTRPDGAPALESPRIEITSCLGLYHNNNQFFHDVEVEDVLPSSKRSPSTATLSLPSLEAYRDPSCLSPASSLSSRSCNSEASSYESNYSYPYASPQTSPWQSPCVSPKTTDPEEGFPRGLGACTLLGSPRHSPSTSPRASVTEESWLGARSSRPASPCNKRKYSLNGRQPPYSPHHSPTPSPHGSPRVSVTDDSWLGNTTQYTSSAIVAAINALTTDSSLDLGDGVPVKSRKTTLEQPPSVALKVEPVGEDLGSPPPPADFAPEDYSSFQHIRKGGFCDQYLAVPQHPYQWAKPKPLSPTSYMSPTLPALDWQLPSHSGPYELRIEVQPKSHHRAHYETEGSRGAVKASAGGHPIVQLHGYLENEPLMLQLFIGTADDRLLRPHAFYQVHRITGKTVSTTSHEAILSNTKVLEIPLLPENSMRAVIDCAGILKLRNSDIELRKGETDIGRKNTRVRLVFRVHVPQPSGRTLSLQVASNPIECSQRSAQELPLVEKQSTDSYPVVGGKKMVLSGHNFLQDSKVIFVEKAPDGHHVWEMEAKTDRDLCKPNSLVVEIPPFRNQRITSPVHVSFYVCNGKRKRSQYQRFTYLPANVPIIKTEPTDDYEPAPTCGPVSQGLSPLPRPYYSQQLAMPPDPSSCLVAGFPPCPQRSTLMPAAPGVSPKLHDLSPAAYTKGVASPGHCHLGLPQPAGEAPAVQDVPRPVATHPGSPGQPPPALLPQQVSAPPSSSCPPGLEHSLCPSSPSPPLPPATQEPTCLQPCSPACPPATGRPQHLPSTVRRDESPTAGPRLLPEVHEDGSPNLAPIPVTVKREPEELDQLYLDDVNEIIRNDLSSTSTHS

[3] = target: Transcription factor GATA-4 (Mus musculus) (UniProt Q08369); test: Inhibition of GATA4 in mouse C2C12 cells assessed as myoblast differentiation to myotubes at 100 uM after 48 hrs by immunofluorescence assay in presence of 0.5% FBS relative to control; format: cell-based
Sequence of Transcription factor GATA-4 (Mus musculus) (Q08369 whole entry): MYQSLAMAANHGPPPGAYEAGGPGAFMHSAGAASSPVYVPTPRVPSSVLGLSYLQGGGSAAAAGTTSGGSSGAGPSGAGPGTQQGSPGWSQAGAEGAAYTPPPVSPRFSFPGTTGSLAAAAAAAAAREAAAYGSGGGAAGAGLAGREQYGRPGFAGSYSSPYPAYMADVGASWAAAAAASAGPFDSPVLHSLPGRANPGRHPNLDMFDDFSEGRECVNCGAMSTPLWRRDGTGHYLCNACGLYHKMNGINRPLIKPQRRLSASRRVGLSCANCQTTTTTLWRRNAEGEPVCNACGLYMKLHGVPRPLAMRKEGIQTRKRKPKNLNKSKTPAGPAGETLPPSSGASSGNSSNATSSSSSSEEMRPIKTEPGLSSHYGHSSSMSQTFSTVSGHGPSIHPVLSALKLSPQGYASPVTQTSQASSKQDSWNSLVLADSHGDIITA

HeLa [4] = test: Drug uptake in human HeLa cells after 24 hrs; format: ADME, cell-based
HeLa [5] = test: Cytotoxicity in human HeLa cells assessed as effect on cell proliferation upto 150 uM; format: cell-based
HEK293 [6] = test: Cytotoxicity in human HEK293 cells assessed as effect on cell proliferation upto 150 uM; format: cell-based
HEK293 [7] = test: Cytotoxicity in human HEK293 cells assessed as cell death upto 150 uM; format: cell-based
C2C12 [8] = test: Cytotoxicity in mouse C2C12 cells assessed as cell death upto 150 uM; format: cell-based
[9] = target: Transcription factor GATA-4 (Homo sapiens) (UniProt P43694); test: Inhibition of GATA4-DNA interaction in HEK293 nuclear extract at 150 uM after 15 mins by EMSA assay; format: cell-free
Sequence of Transcription factor GATA-4 (Homo sapiens) (P43694 whole entry): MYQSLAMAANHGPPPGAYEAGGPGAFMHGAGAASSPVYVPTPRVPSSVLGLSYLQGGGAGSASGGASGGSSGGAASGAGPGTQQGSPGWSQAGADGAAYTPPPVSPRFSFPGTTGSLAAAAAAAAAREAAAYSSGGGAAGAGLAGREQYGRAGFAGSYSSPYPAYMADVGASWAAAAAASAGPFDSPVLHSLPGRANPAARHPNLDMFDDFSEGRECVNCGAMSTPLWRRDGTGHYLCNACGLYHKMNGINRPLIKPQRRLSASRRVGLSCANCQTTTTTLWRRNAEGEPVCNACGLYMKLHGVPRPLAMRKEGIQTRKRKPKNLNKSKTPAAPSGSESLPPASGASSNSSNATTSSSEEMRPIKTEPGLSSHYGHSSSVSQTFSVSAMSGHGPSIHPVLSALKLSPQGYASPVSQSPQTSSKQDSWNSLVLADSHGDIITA

C2C12 [10] = test: Cytotoxicity in mouse C2C12 cells assessed as effect on cell proliferation upto 150 uM; format: cell-based
[11] = Lipophilicity, log P of compound; format: physicochemical; settings: octanol/water
[12] = target: Transcription factor GATA-4 (Homo sapiens) (UniProt P43694); test: Inhibition of GATA4-DNA interaction in HEK293 nuclear extract at 100 uM after 15 mins by EMSA assay; format: cell-free
[13] = target: T2, T-box transcription factor TBX5 (Homo sapiens) (UniProt Q99593); test: Effect on Tbx5 in HEK293 nuclear extract at 50 uM after 15 mins by EMSA assay
T2 sequence (whole entry): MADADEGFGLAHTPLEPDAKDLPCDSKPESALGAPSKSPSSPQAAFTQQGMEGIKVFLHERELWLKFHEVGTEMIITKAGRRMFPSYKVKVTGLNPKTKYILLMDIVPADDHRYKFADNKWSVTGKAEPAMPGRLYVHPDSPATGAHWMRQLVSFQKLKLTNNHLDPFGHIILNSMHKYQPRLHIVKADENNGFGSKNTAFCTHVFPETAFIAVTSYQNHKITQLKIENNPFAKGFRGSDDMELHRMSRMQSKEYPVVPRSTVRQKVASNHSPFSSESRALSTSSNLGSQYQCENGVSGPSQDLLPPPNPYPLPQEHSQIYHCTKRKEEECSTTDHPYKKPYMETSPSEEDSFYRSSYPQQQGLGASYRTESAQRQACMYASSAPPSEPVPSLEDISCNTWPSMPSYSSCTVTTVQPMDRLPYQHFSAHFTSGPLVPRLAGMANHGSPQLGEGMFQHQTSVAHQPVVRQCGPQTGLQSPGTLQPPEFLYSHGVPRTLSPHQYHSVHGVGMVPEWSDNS

[14] = target: Transcription factor GATA-4 (Homo sapiens) (UniProt P43694); test: Inhibition of GATA4-DNA interaction in HEK293 nuclear extract at 50 uM after 15 mins by EMSA assay; format: cell-free
[15] = target: Transcription factor GATA-4 (Homo sapiens) (UniProt P43694); test: Inhibition of GATA4-DNA interaction in HEK293 nuclear extract at 50 to 150 uM after 15 mins by EMSA assay
[16] = target: Transcription factor GATA-4 (Mus musculus) (UniProt Q08369); test: Inhibition of GATA4- DNA interaction in mouse C2C12 cells at 100 uM after 24 hrs by EMSA assay; format: cell-based
[17] = target: Transcription factor GATA-4 (Homo sapiens) (UniProt P43694); test: Inhibition of GATA4- mediated BNP promoter activation in HeLa cells at 100 uM after 24 hrs by luciferase reporter gene assay; format: cell-based
[18] = target: Transcription factor GATA-4 (Mus musculus) (UniProt Q08369); test: Inhibition of GATA4 in mouse C2C12 cells assessed as myoblast differentiation to myotubes at 100 uM after 48 hrs by immunofluorescence assay in presence of 20 % FBS relative to control; format: cell-based

SMILES | Activity (HeLa [1]) | Activity [2] | inhibition [3] | Drug uptake (HeLa [4]) | Activity (HeLa [5]) | Activity (HEK293 [6]) | Activity (HEK293 [7]) | Activity (C2C12 [8]) | inhibition [9] [%] | Activity (C2C12 [10]) | logP [11] | inhibition [12] | Activity [13] | inhibition [14] | inhibition [15] | inhibition [16] | inhibition [17] | inhibition [18]
Cc1cc(C(=O)O)c(C(=O)O)c(O)n1 | Non-toxic | inactive | inactive | Active | Non-toxic | Non-toxic | Non-toxic | Non-toxic | 70 | Non-toxic | < 0 | Active | inactive | Active | Dose-dependent effect | Active | 35% | inactive
O=C(O)CC(Cc1ccc2c(c1)OCO2)C(=O)O (stereo unspecified) | Non-toxic | inactive | Active | Active | Non-toxic | Non-toxic | Non-toxic | Non-toxic |  | Non-toxic | < 0 | Active | inactive | 60% | Dose-dependent effect | Active | 35% | Active
O=C(O)c1cc(C(=O)O)cc(S(=O)(=O)NCCO)c1 | Non-toxic | inactive | Active | Not Active | Non-toxic | Non-toxic | Non-toxic | Non-toxic | 70 | Non-toxic | < 0 | Active | inactive | Active | Dose-dependent effect | Active | inactive | Active
NC(=O)c1ncn([C@@H]2O[C@H](COP(=O)(O)O)[C@@H](O)[C@H]2O)n1 [RIBAVIRIN MONOPHOSPHATE] | Non-toxic | inactive | inactive | Active | Non-toxic | Non-toxic | Non-toxic | Non-toxic | 70 | Non-toxic | < 0 | Active | inactive | Active | Dose-dependent effect | Active | 16% | inactive
